Laboratory results reported in patent publication US20250120967A1, “TYROSINE KINASES INHIBITORS AND USES THEREOF” (GREAT NOVEL THERAPEUTICS BIOTECH & MEDICALS CORPORATION, priority 2023, published 2025).
“And” between values parts separate entries of the source, which are not always exact repeats. Equal entries are not always repeated.

Assays:
RPMI-8226 = assay: NCI-60 screen (SRB); type: cell-based; settings: Homo sapiens; RPMI-8226, Leukemia
Procedure, shortened: (§1)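 Cells in RPMI 1640 with 5% FBS and 2 mM L-glutamine were plated for 24 h, then exposed to five drug concentrations for 48 h at 37 °C. Cells were TCA-fixed, stained with sulforhodamine B, and absorbance at 515 nm was read against a time-zero plate.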

SNB-75 = assay: NCI-60 screen (SRB); type: cell-based; settings: Homo sapiens; SNB-75, CNS Cancer
Procedure, shortened: as §1

CT26 cells = assay: Tumor rechallenge test, CT26 rechallenge; type: in vivo, Balb/c mice; settings: Table 9, CT26 rechallenge, GNTbm-38-K30 20 mg/kg, Regorafenib 30 mg/kg, Cbo-23 30 mg/kg
Protocol: (§2) Mice evaluated as CR/PR can enter the rechallenge study. All mice with PR/CR response went through rechallenges with CT26 cells on the contralateral side. The first rechallenge was performed after second assessment with a tumor dose of 1×10^6 cells per mouse. After 7 days of growth, CT26 and LLC1 tumor sizes were used as the baseline. Tumor growth was monitored for a duration of 11 days, and on the 11th day, a tumor size assessment was conducted relative to the baseline. If both of the following criteria are met, the response will be considered as relapse: first, the tumor size was over 1.5 folds when compared to that of baseline; second, the tumor volume was over 150 mm^3.
(§3) If both of the following criteria are met, the response will be considered as relapse: first, the tumor size over 1.5 folds when compared to that of baseline; second, the tumor volume at day 67 was over 150 mm^3.
(§4) If both of the following criteria are met, the response will be considered as relapse: first, the tumor size was over 1.5 folds when compared to that of baseline; second, the tumor volume at day 56 was over 150 mm^3.

LLC1 = assay: Tumor rechallenge test, LLC1 rechallenge; type: in vivo; settings: Table 9, LLC1 rechallenge, GNTbm-38-K30 20 mg/kg, Regorafenib 30 mg/kg, Cbo-23 30 mg/kg
Protocol: as §2, §3, §4

Row | Compound | GI50 (RPMI-8226) [µM] | GI50 (SNB-75) [nM] | Day 56 Fold change (CT26 cells; individual mice, vs Day 45) | Day 45 mm^3 (baseline tumor size) (CT26 cells; individual mice) | Day 56 mm^3 (CT26 cells; individual mice) | Score (CT26 cells; individual mice) | Immunity Percentage (CT26 cells) | Day 56 Fold change (LLC1; individual mice, vs Day 45) | Day 45 mm^3 (baseline tumor size) (LLC1; individual mice) | Day 56 mm^3 (LLC1; individual mice) | Score (LLC1; individual mice) | Immunity Percentage (LLC1)
1 | COc1cc2nccc(Oc3ccc(NC(=O)C4(NC(=O)c5ccc(F)cc5)CC4)cc3F)c2cc1OC [Cbo-02, N-(1-((4-((6,7-diMethoxyquinolin-4-yl)oxy)-3-fluorophenyl)carbamoyl)cyclopropyl)-4-fluorobenzamide] | 4.57 |  |  |  |  |  |  |  |  |  |  | 
2 | COc1cc2nccc(Oc3ccc(NC(=O)C4(NC(=O)c5ccc(F)cc5)CC4)cc3F)c2cc1Oc1ccc(N)cc1F [Cbo-10] | 2.99 | > 100000 |  |  |  |  |  |  |  |  |  | 
3 | COc1cc2nccc(Oc3ccc(NC(=O)C4(C(=O)Nc5ccc(F)cc5)CC4)cc3F)c2cc1Oc1ccc(N)cc1F [Cbo-23] |  | 178 | 2.6 and 0 | 119.17 mm^3 and 60.82 mm^3 | 309.20 mm^3 and 0 mm^3 | + (If both of the following criteria are met, the response will be considered as relapse: first, the tumor size was over 1.5 folds when compared to that of baseline; second, the tumor volume at day 56 was over 150 mm^3.) | 50% (1/2) | 2.5 and 1.0 | 163.76 mm^3 and 173.53 mm^3 | 403.54 mm^3 and 169.80 mm^3 | + (If both of the following criteria are met, the response will be considered as relapse: first, the tumor size was over 1.5 folds when compared to that of baseline; second, the tumor volume at day 56 was over 150 mm^3.) | 50% (1/2)
